In general, EC50 refers to the concentration that produces a half-maximal response.

The values that follow come from article PMC10840383, “Clinical features, functional consequences, and rescue pharmacology of missense GRID1 and GRID2 human variants” (Human Molecular Genetics, 2023).

Each structure is given as a SMILES string. “Also recorded” adds a separate entry of the source.

The assay deals with T1, GluD2-A654T-D535E (Rattus norvegicus, UniProt Q63226, A654T/D535E).
T1 construct: expressed in transfected cells; host or cells: Xenopus laevis oocytes injected with cRNA
T1 sequence (Q63226 24-1007 D535E/A654T): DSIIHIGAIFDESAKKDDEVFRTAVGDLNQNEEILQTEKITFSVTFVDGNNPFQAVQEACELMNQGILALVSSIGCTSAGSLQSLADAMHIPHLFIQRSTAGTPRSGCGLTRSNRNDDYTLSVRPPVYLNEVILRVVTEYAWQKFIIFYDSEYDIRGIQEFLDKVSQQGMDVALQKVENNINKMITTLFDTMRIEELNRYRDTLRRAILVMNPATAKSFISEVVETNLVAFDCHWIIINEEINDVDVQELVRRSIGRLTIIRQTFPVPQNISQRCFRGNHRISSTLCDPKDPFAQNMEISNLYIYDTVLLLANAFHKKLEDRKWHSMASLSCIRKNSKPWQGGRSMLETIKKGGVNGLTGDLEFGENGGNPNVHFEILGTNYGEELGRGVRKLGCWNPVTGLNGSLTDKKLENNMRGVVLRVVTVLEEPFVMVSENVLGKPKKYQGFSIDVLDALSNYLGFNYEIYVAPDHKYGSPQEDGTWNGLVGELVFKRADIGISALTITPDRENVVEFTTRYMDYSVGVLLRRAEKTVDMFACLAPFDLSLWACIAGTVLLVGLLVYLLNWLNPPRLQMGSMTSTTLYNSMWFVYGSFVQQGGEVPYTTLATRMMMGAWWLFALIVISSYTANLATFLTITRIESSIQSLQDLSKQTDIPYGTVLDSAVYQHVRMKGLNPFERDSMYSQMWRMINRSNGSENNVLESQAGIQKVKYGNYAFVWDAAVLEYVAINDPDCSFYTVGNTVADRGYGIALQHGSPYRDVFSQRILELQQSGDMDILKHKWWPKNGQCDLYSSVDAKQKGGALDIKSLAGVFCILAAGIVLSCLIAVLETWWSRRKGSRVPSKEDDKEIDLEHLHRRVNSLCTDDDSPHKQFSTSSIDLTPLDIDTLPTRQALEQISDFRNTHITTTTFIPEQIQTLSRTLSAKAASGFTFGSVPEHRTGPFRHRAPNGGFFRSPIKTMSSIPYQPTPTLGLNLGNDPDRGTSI
Put plainly: TEVC of constitutive current, Xenopus oocytes expressing GluD2-A654T-D535E. Type of assay: cell-based. As to conditions: for Effect on constitutive current, in words: compared to GluD2-A654T. The text has this: Human GluD1 (GRID1) and rat GluD2 (Grid2) cDNAs were introduced into the pGEM-HE and pCI-neo vectors. GRID1 (NM_017551.3) gene fragments were synthesized by Integrated DNA Technologies and cloned into empty vectors using InFusion cloning (Clontech). […] However, rat and human GluD2-encoding cDNA are identical in the M3 domain in which many of the variants we studied reside (see Supplementary Fig. S1). The full open reading frame for both constructs were verified by Sanger sequencing (Eurofins) and the full plasmid sequence was verified by whole plasmid sequencing (plasmidsaurus). Variant cDNA changes identified in patients were introduced into the cloned human GRID1 (NM_017551.3) in pGEM-HE and cloned rat Grid2 cDNA sequence (NM_024379.1) in pGEM-HE vector using Quikchange Lightning (Agilent) protocol according to the manufacturer’s instructions. Vectors were linearized and cRNA was synthesized using T7 RNA mMESSAGE kit (Invitrogen).
Xenopus laevis oocytes were prepared from ovaries purchased from Xenopus 1 (Dexter, MI) as previously described, [68] and incubated at 16°C in culture Barth’s solution (in mM) 88 NaCl, 2.4 NaHCO3, 1 KCl, 0.33 Ca(NO3)2, 0.41 CaCl2, 0.82 MgSO4, 10 HEPES, pH 7.4 with NaOH, supplemented with 1 U/ml penicillin and 1 μg/ml streptomycin. Oocytes were injected with approximately 5–40 ng RNA per oocyte and then incubated at 16–19°C for 1–3 days in culture Barth’s solution. […] Two-electrode voltage clamp (TEVC) recordings were performed as previously described. Unless otherwise specified, extracellular solution contained (in mM) 90 NaCl, 3 KCl, 0.5 BaCl2, 0.01 EDTA, 10 HEPES, and was brought to pH 7.4 with NaOH. The oocytes were placed in a dual track recording chamber and gravity perfused with solution exchange controlled via a computer-driven 8-valve positioner (Digital MVP Valve). […] Recording electrodes were filled with 0.3 M KCl, and currents were recorded with membrane voltage held at −40 mV. To establish constitutive activity of recombinant receptors when compared to wild type receptors, we used the oocyte recording solution described above, but with 90 mM N-methyl-D-glucamine (NMDG) chloride replacing 90 mM NaCl. […] For Ca^2+ concentration-response curves, choline chloride was used to maintain equimolar concentrations of Cl^− ions in the extracellular solution across the changing concentrations of calcium chloride. All compounds used in this study for concentration-response oocyte recordings were dissolved in deionized water as 50–100 mM stock solutions. In some rescue pharmacology experiments, we substituted 1 mM CaCl2 for 0.5 mM BaCl2 to evaluate Ca^2+-dependent control of receptor responses.
Data are represented as mean ± SEM. Statistical significance of logEC50 or logIC50 was determined by one-way analysis of variance (ANOVA) with a Dunnett’s multiple comparisons post-hoc test with a significance threshold of P < 0.05. Sample sizes were adjusted so that the power to detect an effect size of 1 was > 0.9 (GPower 3.1). All error bars on figures represent the SEM.

`N[C@H](CO)C(=O)O` [D-serine]: the “Effect on constitutive current, in words” value is listed as “modestly reduced D-serine potency”. Also, the “D-serine % Max (NMDG+ − Na+) Mean ± SEM” value (percent of constitutive leak current (NMDG+/Na+ difference current)) was 60 ± 2.2 (15) %.
With `[Ca+2]` [Ca^2+], the “Effect on constitutive current, in words” value is “weakly inhibited; also recorded: complete loss of Ca^2+ potentiation”. In addition, the EC50 (modulation of constitutive current, inhibited by Ca2+ (not potentiated), read-out: Ca2+ EC50 [95% CI]) was 5.6 mM. Further, the “Ca2+ % Max (NMDG+ − Na+) Mean ± SEM” value (normalized to NMDG+ − Na+ difference current) is on record as 70 ± 2.0 (15) %.
